# From patent US12486274B2, “Substituted pyrazolo-pyrimidines and uses thereof” (Verge Analytics, Inc., priority 2020, dated 2025)
# Molecular target: Full length human recombinant PIKFYVE (Homo sapiens (Human), UniProt Q9Y2I7)
# Experiment: Inhibition of PIKfyve (microfluidic electrophoresis kinase assay)
# Format: biochemical
# Conditions: 2 nM enzyme, PI3P/PS substrate, 3 h at room temperature, 12 concentrations
# Method: Full length human recombinant PIKFYVE expressed in baculovirus expression system as N-terminal GST-fusion protein (265 kDa) was obtained from Carna Biosciences (Kobe, Japan). The kinase substrate was prepared by mixing and sonicating fluorescently-labeled phosphatidylinositol 3-phosphate (PI3P) with phospho-L-serine (PS) at a 1:10 ratio in 50 mM HEPES buffer pH7.5.
# The kinase reactions were assembled in 384-well plates (Greiner) in a total volume of […] as follows. Kinase protein was pre-diluted in an assay buffer comprising 25 mM HEPES, pH 7.5, 1 mM DTT, 2.5 mM MgCl2, and 2.5 mM MnCl2, and 0.005% Triton X-100, and dispensed into a 384-well plate (10 μL per well). Test compounds were serially pre-diluted in DMSO and added to the protein samples by acoustic dispensing (Labcyte Echo). The concentration of DMSO was equalized to 1% in all samples. All test compounds were tested at 12 concentrations. Apilimod was used as a reference compound and was tested in identical manner in each assay plate. Control samples (0%-inhibition, in the absence of inhibitor, DMSO only) and 100%-inhibition (in the absence of enzyme) were assembled in replicates of four and were used to calculate %-inhibition in the presence of compounds. The reactions were initiated by addition of 10 μL of 2× PI3P/PS substrate supplemented with ATP. The final concentration of enzyme was 2 nM, the final concentration of ATP was 10 mM, and the final concentration of PI3P/PS substrate was 1 μM (PI3P). The kinase reactions were allowed to proceed for 3 h at room temperature. Following incubation, the reactions were quenched by addition of […] of termination buffer (100 mM HEPES, pH 7.5, 0.01% Triton X-100, 20 mM EDTA). Terminated plates were analyzed on a microfluidic electrophoresis instrument (Caliper LabChip® 3000, Caliper Life Sciences/Perkin Elmer). The change in the relative fluorescence intensity of the PI (3) P substrate and PI (3,5) P product peaks was measured. The activity in each test sample was determined as the product to sum ratio (PSR): P/(S+P), where P is the peak height of the product, and S is the peak height of the substrate. Percent inhibition (Pinh) was determined using the following equation: Pinh=(PSR0% inh−PSRcompound)/(PSR0% inh−PSR100% inh)*100 in which PSRcompound is the product/sum ratio in the presence of compound, PSR0% inh is the product/sum ratio in the absence of compound, and the PSR100% inh is the product/sum ratio in the absence of the enzyme.
# Chain of Full length human recombinant PIKFYVE (Q9Y2I7 whole entry): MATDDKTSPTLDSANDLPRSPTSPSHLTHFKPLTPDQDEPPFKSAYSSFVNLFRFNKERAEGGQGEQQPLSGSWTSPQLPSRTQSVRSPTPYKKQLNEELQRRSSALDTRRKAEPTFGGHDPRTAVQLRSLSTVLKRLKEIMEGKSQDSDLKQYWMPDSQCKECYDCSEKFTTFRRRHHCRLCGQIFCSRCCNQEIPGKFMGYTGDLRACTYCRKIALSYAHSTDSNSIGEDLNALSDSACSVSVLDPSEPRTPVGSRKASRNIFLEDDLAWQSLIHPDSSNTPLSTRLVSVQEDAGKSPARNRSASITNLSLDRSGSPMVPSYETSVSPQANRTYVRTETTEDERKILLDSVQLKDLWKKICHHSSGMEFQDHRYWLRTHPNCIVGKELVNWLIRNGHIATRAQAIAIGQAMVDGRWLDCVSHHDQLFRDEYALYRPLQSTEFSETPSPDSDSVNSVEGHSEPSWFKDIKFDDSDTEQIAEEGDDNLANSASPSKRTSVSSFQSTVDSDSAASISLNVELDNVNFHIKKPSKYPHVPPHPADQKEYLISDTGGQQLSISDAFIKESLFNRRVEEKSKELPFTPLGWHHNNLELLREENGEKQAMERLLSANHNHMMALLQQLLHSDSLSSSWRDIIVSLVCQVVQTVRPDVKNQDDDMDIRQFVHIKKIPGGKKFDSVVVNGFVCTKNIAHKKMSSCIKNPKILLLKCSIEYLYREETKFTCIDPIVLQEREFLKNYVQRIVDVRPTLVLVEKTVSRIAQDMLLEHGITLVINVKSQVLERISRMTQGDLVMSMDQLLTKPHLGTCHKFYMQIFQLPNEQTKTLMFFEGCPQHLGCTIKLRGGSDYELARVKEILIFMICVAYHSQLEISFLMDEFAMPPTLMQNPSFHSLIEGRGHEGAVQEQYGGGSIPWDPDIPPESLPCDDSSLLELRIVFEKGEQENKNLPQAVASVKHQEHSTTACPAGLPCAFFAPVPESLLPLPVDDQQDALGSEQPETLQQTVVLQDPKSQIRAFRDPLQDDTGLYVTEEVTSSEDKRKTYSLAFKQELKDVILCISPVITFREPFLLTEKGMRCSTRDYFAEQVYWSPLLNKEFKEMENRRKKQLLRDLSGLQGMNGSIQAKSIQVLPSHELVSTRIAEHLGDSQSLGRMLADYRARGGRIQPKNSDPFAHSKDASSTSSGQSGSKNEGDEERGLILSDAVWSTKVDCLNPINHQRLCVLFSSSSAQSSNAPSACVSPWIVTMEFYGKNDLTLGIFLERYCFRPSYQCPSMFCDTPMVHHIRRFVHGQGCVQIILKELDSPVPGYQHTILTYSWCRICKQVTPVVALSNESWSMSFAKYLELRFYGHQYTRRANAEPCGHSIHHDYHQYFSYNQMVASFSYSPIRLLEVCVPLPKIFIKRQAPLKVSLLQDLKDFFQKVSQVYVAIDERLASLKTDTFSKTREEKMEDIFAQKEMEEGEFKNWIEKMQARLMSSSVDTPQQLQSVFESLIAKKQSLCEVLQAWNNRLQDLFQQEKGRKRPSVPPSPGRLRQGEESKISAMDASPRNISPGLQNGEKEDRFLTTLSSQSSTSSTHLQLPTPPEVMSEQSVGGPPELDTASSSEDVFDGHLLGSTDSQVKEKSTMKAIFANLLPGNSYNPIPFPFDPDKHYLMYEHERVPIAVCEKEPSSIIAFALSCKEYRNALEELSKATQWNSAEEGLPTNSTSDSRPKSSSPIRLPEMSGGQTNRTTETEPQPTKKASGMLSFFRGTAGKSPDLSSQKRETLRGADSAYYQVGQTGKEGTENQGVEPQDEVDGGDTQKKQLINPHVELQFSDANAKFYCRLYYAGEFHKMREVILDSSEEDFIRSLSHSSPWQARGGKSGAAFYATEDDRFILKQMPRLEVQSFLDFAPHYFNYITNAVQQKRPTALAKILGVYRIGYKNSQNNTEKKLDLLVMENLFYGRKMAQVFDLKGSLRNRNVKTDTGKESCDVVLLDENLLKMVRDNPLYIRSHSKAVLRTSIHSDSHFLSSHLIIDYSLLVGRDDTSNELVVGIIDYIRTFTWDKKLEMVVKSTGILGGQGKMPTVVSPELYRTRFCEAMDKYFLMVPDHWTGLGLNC
row,IC50 [nM],Structure (SMILES)
1,2.4,"Cc1cccc(-c2ccn(-c3cc(N4CCOCC4)n4nc(-c5ccn(C)n5)cc4n3)n2)c1 [Compound 61, 4-[2-(1-methylpyrazol-3-yl)-5-[3-(m-tolyl)pyrazol-1-yl]pyrazolo[1,5-a]pyrimidin-7-yl]morpholine]"
2,15.8,"Cc1cccc(-c2ccn(-c3cc(N4CCOCC4)n4nc(-c5cc[nH]n5)cc4n3)n2)c1 [Compound 62, 4-[5-[3-(m-tolyl)pyrazol-1-yl]-2-(1H-pyrazol-3-yl)pyrazolo[1,5-a]pyrimidin-7-yl]morpholine]"
3,693,"c1ccc(-c2ccn(-c3cc(N4CCOCC4)n4nc(-c5ncccn5)cc4n3)n2)cc1 [Compound 63, 4-[5-(3-phenylpyrazol-1-yl)-2-pyrimidin-2-yl-pyrazolo[1,5-a]pyrimidin-7-yl]morpholine]"
4,68.1,"c1ccc(-c2ccn(-c3cc(N4CCOCC4)n4nc(-c5cccnc5)cc4n3)n2)cc1 [Compound 64, 4-[5-(3-phenylpyrazol-1-yl)-2-(3-pyridyl)pyrazolo[1,5-a]pyrimidin-7-yl]morpholine]"
5,104,"Cn1ccc(-c2cc3nc(-n4ccc(-c5ccccc5)n4)cc(N4CCOCC4)n3n2)n1 [Compound 66, 4-[2-(1-methylpyrazol-3-yl)-5-(3-phenylpyrazol-1-yl)pyrazolo[1,5-a]pyrimidin-7-yl]morpholine]"
6,261,"c1ccc(-c2ccn(-c3cc(N4CCOCC4)n4nc(-c5cc[nH]n5)cc4n3)n2)cc1 [Compound 67, 4-[5-(3-phenylpyrazol-1-yl)-2-(1H-pyrazol-3-yl)pyrazolo[1,5-a]pyrimidin-7-yl]morpholine]"
7,1660,"c1ccc(-c2ccn(-c3cc(N4CCOCC4)n4nc(-c5ccncn5)cc4n3)n2)cc1 [Compound 68, 4-[5-(3-phenylpyrazol-1-yl)-2-pyrimidin-4-yl-pyrazolo[1,5-a]pyrimidin-7-yl]morpholine]"
8,752,"c1ccc(-c2ccn(-c3cc(N4CCOCC4)n4nc(-c5cncnc5)cc4n3)n2)cc1 [Compound 69, 4-[5-(3-phenylpyrazol-1-yl)-2-pyrimidin-5-yl-pyrazolo[1,5-a]pyrimidin-7-yl]morpholine]"
9,378,"Nc1ncccc1-c1cc2nc(-n3ccc(-c4ccccc4)n3)cc(N3CCOCC3)n2n1 [Compound 70, 3-[7-morpholino-5-(3-phenylpyrazol-1-yl)pyrazolo[1,5-a]pyrimidin-2-yl]pyridin-2-amine]"
10,143,"Nc1ncc(-c2cc3nc(-n4ccc(-c5ccccc5)n4)cc(N4CCOCC4)n3n2)cn1 [Compound 71, 5-[7-morpholino-5-(3-phenylpyrazol-1-yl)pyrazolo[1,5-a]pyrimidin-2-yl]pyrimidin-2-amine]"
11,281,"c1ccc(-c2ccn(-c3cc(N4CCOCC4)n4nc(-c5ccccn5)cc4n3)n2)cc1 [Compound 72, 4-[5-(3-phenylpyrazol-1-yl)-2-(2-pyridyl)pyrazolo[1,5-a]pyrimidin-7-yl]morpholine]"
12,335,"CC(C)NC(=O)c1cc2nc(-n3ccc(-c4ccccc4)n3)cc(N3CCOCC3)n2n1 [Compound 73, N-isopropyl-7-morpholino-5-(3-phenylpyrazol-1-yl)pyrazolo[1,5-a]pyrimidine-2-carboxamide]"
13,353,"C[C@@H](NC(=O)c1cc2nc(-n3ccc(-c4ccccc4)n3)cc(N3CCOCC3)n2n1)C1CC1 [Compound 74, N-[(1R)-1-cyclopropylethyl]-7-morpholino-5-(3-phenylpyrazol-1-yl)pyrazolo[1,5-a]pyrimidine-2-carboxamide]"
14,334,"C[C@H](NC(=O)c1cc2nc(-n3ccc(-c4ccccc4)n3)cc(N3CCOCC3)n2n1)C1CC1 [Compound 75, N-[(1S)-1-cyclopropylethyl]-7-morpholino-5-(3-phenylpyrazol-1-yl)pyrazolo[1,5-a]pyrimidine-2-carboxamide]"
15,1590,"O=C(NCC1COC1)c1cc2nc(-n3ccc(-c4ccccc4)n3)cc(N3CCOCC3)n2n1 [Compound 76, 7-morpholino-N-(oxetan-3-ylmethyl)-5-(3-phenylpyrazol-1-yl)pyrazolo[1,5-a]pyrimidine-2-carboxamide]"
16,184,"O=C(NC1CCCC1)c1cc2nc(-n3ccc(-c4ccccc4)n3)cc(N3CCOCC3)n2n1 [Compound 77, N-cyclopentyl-7-morpholino-5-(3-phenylpyrazol-1-yl)pyrazolo[1,5-a]pyrimidine-2-carboxamide]"
17,441,"c1ccc(-c2cnn(-c3cc(N4CCOCC4)n4nc(-c5ccccn5)cc4n3)c2)cc1 [Compound 78, 4-[5-(4-phenylpyrazol-1-yl)-2-(2-pyridyl)pyrazolo[1,5-a]pyrimidin-7-yl]morpholine]"
18,333,"c1ccc(-c2cnn(-c3cc(N4CCOCC4)n4nc(-c5cccnc5)cc4n3)c2)cc1 [Compound 79, 4-[5-(4-phenylpyrazol-1-yl)-2-(3-pyridyl)pyrazolo[1,5-a]pyrimidin-7-yl]morpholine]"
19,4390,"CC(C)NC(=O)c1cc2nc(-n3cc(-c4ccccc4)cn3)cc(N3CCOCC3)n2n1 [Compound 80, N-isopropyl-7-morpholino-5-(4-phenylpyrazol-1-yl)pyrazolo[1,5-a]pyrimidine-2-carboxamide]"
20,169,"c1ccc(-c2ccn(-c3cc(N4CCOCC4)n4nc(-c5cnccn5)cc4n3)n2)cc1 [Compound 82, 4-[5-(3-phenylpyrazol-1-yl)-2-pyrazin-2-yl-pyrazolo[1,5-a]pyrimidin-7-yl]morpholine]"
21,22.6,"Cc1cccc(-c2ccn(-c3cc(N4CCOCC4)n4nc(-c5cc(C)nn5CCN(C)C)cc4n3)n2)c1 [Compound 83, N,N-dimethyl-2-[3-methyl-5-[7-morpholino-5-[3-(m-tolyl)pyrazol-1-yl]pyrazolo[1,5-a]pyrimidin-2-yl]pyrazol-1-yl]ethanamine]"
22,2.6,"Cc1cccc(-c2ccn(-c3cc(N4CCOCC4)n4nc(-c5cc(C)nn5C)cc4n3)n2)c1 [Compound 84, 4-[2-(2,5-dimethylpyrazol-3-yl)-5-[3-(m-tolyl)pyrazol-1-yl]pyrazolo[1,5-a]pyrimidin-7-yl]morpholine]"
23,215,"Cc1cc(-c2cc3nc(-n4ccc(-c5ccccc5)n4)cc(N4CCOCC4)n3n2)n(C)n1 [Compound 85, 4-[2-(2,5-dimethylpyrazol-3-yl)-5-(3-phenylpyrazol-1-yl)pyrazolo[1,5-a]pyrimidin-7-yl]morpholine]"
24,32.2,"Cc1cc(-c2cc3nc(-n4ccc(-c5ccccc5)n4)cc(N4CCOCC4)n3n2)nn1C [Compound 86, 4-[2-(1,5-dimethylpyrazol-3-yl)-5-(3-phenylpyrazol-1-yl)pyrazolo[1,5-a]pyrimidin-7-yl]morpholine]"
25,0.9,"Cc1cccc(-c2ccn(-c3cc(N4CCOCC4)n4nc(-c5cc(C)n(C)n5)cc4n3)n2)c1 [Compound 87, 4-[2-(1,5-dimethylpyrazol-3-yl)-5-[3-(m-tolyl)pyrazol-1-yl]pyrazolo[1,5-a]pyrimidin-7-yl]morpholine]"
26,208,"c1ccc(-c2ccn(-c3cc(N4CCOCC4)n4nc(-c5cccnn5)cc4n3)n2)cc1 [Compound 88, 4-[5-(3-phenylpyrazol-1-yl)-2-pyridazin-3-yl-pyrazolo[1,5-a]pyrimidin-7-yl]morpholine]"
27,2160,CCC(=O)NCc1cc2nc(-n3ccc(-c4ccccc4)n3)cc(N3CCOCC3)n2n1 [Compound 90]
28,9.4,"Cc1cccc(-c2ccn(-c3cc(N4CCOCC4)n4nc(-c5cc(C)n(CCN(C)C)n5)cc4n3)n2)c1 [Compound 91, N,N-dimethyl-2-[5-methyl-3-[7-morpholino-5-[3-(m-tolyl)pyrazol-1-yl]pyrazolo[1,5-a]pyrimidin-2-yl]pyrazol-1-yl]ethanamine]"
29,5240,"Cc1cc(-c2cc3nc(-n4ccc(-c5ccccn5)n4)cc(N4CCOCC4)n3n2)nn1CCN(C)C [Compound 92, N,N-dimethyl-2-[5-methyl-3-[7-morpholino-5-[3-(2-pyridyl)pyrazol-1-yl]pyrazolo[1,5-a]pyrimidin-2-yl]pyrazol-1-yl]ethanamine]"
30,> 10000,"Cc1cc(-c2cc3nc(-n4ccc(-c5ccncc5)n4)cc(N4CCOCC4)n3n2)nn1CCN(C)C [Compound 93, N,N-dimethyl-2-[5-methyl-3-[7-morpholino-5-[3-(4-pyridyl)pyrazol-1-yl]pyrazolo[1,5-a]pyrimidin-2-yl]pyrazol-1-yl]ethanamine]"

row,Structure (SMILES),IC50 [nM]
1,"COC(=O)NCc1cc2nc(-n3ccc(-c4ccccc4)n3)cc(N3CCOCC3)n2n1 [Compound 89, methyl N-[[7-morpholino-5-(3-phenylpyrazol-1-yl)pyrazolo[1,5-a]pyrimidin-2-yl]methyl]carbamate]",1400
